Literature values in US20120141611A1, “METHODS AND COMPOSITIONS USING ERGOTHIONEINE TO TREAT A VARIETY OF HEALTH RELATED FACTORS” (Oxis International Inc., priority 2010, published 2012).

How the values were obtained:
[1] = single elderly person, stable seven years later; cited from earlier work
[2] = 537 osteoarthritis patients, after 27 weeks; cited from earlier work
intestinal polyps = conditions: mouse, in vivo; cited from earlier work
[3] = people taking vitamin C supplements, 1,032 subjects; cited from earlier work

Cyanocobalamin [vitamin B12]
Dementia outcome [1]: their dementia disappeared

hyaluronic acid
Joint pain [2]: significantly reduce joint pain while resting and while walking

COc1cc(/C=C/C(=O)CC(=O)/C=C/c2ccc(O)c(OC)c2)ccc1O [curcumin]
Reduction of intestinal polyps (intestinal polyps): 75%

O=C1O[C@H]([C@@H](O)CO)C(O)=C1O [vitamin C]
Reduced likelihood of developing osteoarthritis in the knee [3]: 11%
